Results: patent US5750530A, “Pharmaceutical diketopiperazine compounds” (Xenova Limited, priority 1994, dated 1998)
Counter-ions that a name gives are not always drawn. Like-named read-outs stand apart in the source and are kept apart here.

Target: PAI-1 (Homo sapiens, UniProt P05121)
Experiment: biochemical
Assay type: biochemical
Description: The present compounds have been tested in a PAI functional assay. In this assay, a compound is incubated with PAI-1 prior to addition to the tPA assay system. Inhibition of PAI-1 results in the production of plasmin from plasminogen. In turn, plasmin cleaves the chromogenic substrate S2251 (Kabi Vitrum) producing pNA (p-nitroaniline) which is detected spectrophotometrically at 405 nm (K. Nilsson et al, Fibrinolysis (1987) 1, 163-168).
The present compounds were tested in a PAI chromogenic substrate assay. In the assay (K. Nilsson, Fibrinolysis (1987) 1, 163-168) each compound was incubated with PAI-1 prior to addition to the tPA assay system. […] In turn, the plasmin cleaved the chromogenic substrate S2251 (Kabi-Vitrum) producing pNA (p-nitroaniline) which was detected spectrophotometrically at 405 nm.
The degrees of inhibition observed in the chromogenic substrate assay at various concentrations, or the IC50 values, for each compound are presented in Table 1.

[1] = PAI chromogenic substrate assay

Sequence of PAI-1 (P05121 24-402): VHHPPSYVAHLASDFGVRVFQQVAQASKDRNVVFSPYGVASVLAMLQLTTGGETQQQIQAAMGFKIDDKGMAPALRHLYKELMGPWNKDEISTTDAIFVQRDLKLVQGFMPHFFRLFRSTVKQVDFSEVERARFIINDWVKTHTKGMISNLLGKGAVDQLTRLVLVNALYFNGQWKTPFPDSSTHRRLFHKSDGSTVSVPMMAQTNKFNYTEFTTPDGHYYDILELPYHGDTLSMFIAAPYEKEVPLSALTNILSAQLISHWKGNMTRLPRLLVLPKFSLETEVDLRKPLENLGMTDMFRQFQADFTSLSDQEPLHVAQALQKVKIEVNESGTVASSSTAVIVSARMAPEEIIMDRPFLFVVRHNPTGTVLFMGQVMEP

SMILES	% Inhibition (5 μm) [%]	% Inhibition (20 μm) [%]	% Inhibition (100 μm) [%]	IC50 [1] [µM]	IC50 [µM]
CN(C)CCSc1ccc(/C=c2\[nH]c(=O)/c(=C/c3ccccc3)[nH]c2=O)cc1 [Compound 5128.HCl, (3Z,6Z)-6-Benzylidene-3-(4-(2-dimethylaminoethylthio)benzylidene)-2,5-piperazinedione]	5	71	69	10	
CN(C)CCSc1ccc(/C=c2\[nH]c(=O)/c(=C/c3ccoc3)[nH]c2=O)cc1 [Compound 5129.HCl, (3Z,6Z)-6-(4-(2-Dimethylaminoethylthio)benzylidene)-3-(3-furylmethylene)-2,5-piperazinedione]	51	68	50	4.5	
CN(C)CCSc1ccc(/C=c2\[nH]c(=O)/c(=C/c3ccccc3)[nH]c2=O)s1 [Compound 5131.HCl, (3Z,6Z)-6-Benzylidene-3-(5-(2-dimethylaminoethylthio)-2-thienyl)methylene-2,5-piperazinedione]		65	56	5	
CN(C)CCSc1ccc(/C=c2\[nH]c(=O)/c(=C/c3ccsc3)[nH]c2=O)cc1 [Compound 5133.HCl, (3Z,6Z)-6-(4-(2-Dimethylaminoethylthio)benzylidene)-3-(3-thienylmethylene)-2,5-piperazinedione]		66	24	3	
CN(C)CC[S+]([O-])c1ccc(/C=c2\[nH]c(=O)/c(=C/c3ccccc3)[nH]c2=O)cc1 (centres unmarked) [Compound 5141.HCl, (3Z,6Z)-6-Benzylidene-3-(4-(2-dimethylaminoethylsulphinyl)benzylidene)-2,5-piperazinedione]	0	6	34		
CN(C)CCSc1ccc(/C=c2\[nH]c(=O)/c(=C/c3ccsc3)[nH]c2=O)s1 [Compound 5257, (3Z,6Z)-3-(5-(2-Dimethylaminoethylthio)-2-thienyl)methylene-6-(3-thienyl)methylene-2,5-piperazinedione]		77	41	7	
CN(C)CCSc1ccc(/C=c2\[nH]c(=O)/c(=C/c3ccc4c(c3)OCO4)[nH]c2=O)s1 [Compound 5279, (3Z,6Z)-3-(5-(2-Dimethylaminoethylthio)-2-thienyl)methylene-6-(3,4-methylenedioxybenzylidene)-2,5-piperazinedione]		64	68		20
CN(C)CCSc1ccc(/C=c2\[nH]c(=O)/c(=C/c3ccc4c(c3)OCO4)[nH]c2=O)s1 [Compound 5279.HCl, (3Z,6Z)-3-(5-(2-Dimethylaminoethylthio)-2-thienyl)methylene-6-(3,4-methylenedioxybenzylidene)-2,5-piperazinedione]				13	
CN(C)CCSc1ccc(/C=c2\[nH]c(=O)/c(=C/c3ccc(N(C)C)cc3)[nH]c2=O)s1 [Compound 5280, (3Z,6Z)-6-(4-Dimethylaminobenzylidene)-3-(5-(2-dimethylaminoethylthio)-2-thienyl)methylene-2,5-piperazinedione]		82	99	20	
CN(C)CCSc1ccc(/C=c2\[nH]c(=O)/c(=C/c3ccc4ccccc4c3)[nH]c2=O)cc1 [Compound 5284, (3Z,6Z)-6-(4-(2-Dimethylaminoethylthio)benzylidene)-3-(2-naphthylmethylene)-2,5-piperazinedione]				3	
CN(C)CCSc1ccc(/C=c2\[nH]c(=O)/c(=C/c3ccc4ccccc4c3)[nH]c2=O)s1 [Compound 5286, (3Z,6Z)-3-(5-(2-Dimethylaminoethylthio)-2-thienyl)methylene-6-(2-naphthyl)methylene-2,5-piperazinedione]		87	98	8	
CN(C)CCSc1ccc(/C=c2\[nH]c(=O)/c(=C/c3ccc4ccccc4c3)[nH]c2=O)s1 [Compound 5286.HCl, (3Z,6Z)-3-(5-(2-Dimethylaminoethylthio)-2-thienyl)methylene-6-(2-naphthyl)methylene-2,5-piperazinedione]		77	98	14	
CN(C)CCSc1ccc(/C=c2\[nH]c(=O)/c(=C/c3cccc(Cl)c3)[nH]c2=O)s1 [Compound 5291, (3Z,6Z)-6-(3-Chlorobenzylidene)-3-(5-(2-dimethylaminoethylthio)-2-thienyl)methylene-2,5-piperazinedione]				20	
CN(C)CCSc1ccc(/C=c2\[nH]c(=O)/c(=C/c3cccc(Cl)c3)[nH]c2=O)cc1 [Compound 5292, (3Z,6Z)-3-(3-Chlorobenzylidene)-6-(4-(2-dimethylaminoethylthio)benzylidene)-2,5-piperazinedione]				3	
CN(C)CCSc1ccc(/C=c2\[nH]c(=O)/c(=C/c3cccc(Cl)c3)[nH]c2=O)cc1 [Compound 5292.HCl, (3Z,6Z)-3-(3-Chlorobenzylidene)-6-(4-(2-dimethylaminoethylthio)benzylidene)-2,5-piperazinedione]				2	
CN(C)CCSc1ccc(/C=c2\[nH]c(=O)/c(=C/c3ccc(C(F)(F)F)cc3)[nH]c2=O)s1 [Compound 5293, (3Z,6Z)-3-(5-(2-Dimethylaminoethylthio)-2-thienyl)methylene-6-(4-trifluoromethylbenzylidene)-2,5-piperazinedione]				20	
CN(C)CCSc1ccc(/C=c2\[nH]c(=O)/c(=C/c3ccc(C(F)(F)F)cc3)[nH]c2=O)cc1 [Compound 5294, (3Z,6Z)-3-(4-(2-Dimethylaminoethylthio)benzylidene)-6-(4-trifluoromethylbenzylidene)-2,5-piperazinedione]				2.5	
CN(C)CCSc1ccc(/C=c2\[nH]c(=O)/c(=C/c3ccc(C(F)(F)F)cc3)[nH]c2=O)cc1 [Compound 5294.HCl, (3Z,6Z)-3-(4-(2-Dimethylaminoethylthio)benzylidene)-6-(4-trifluoromethylbenzylidene)-2,5-piperazinedione]				10	
CC(=O)Nc1ccc(/C=c2\[nH]c(=O)/c(=C/c3ccc(SCCN(C)C)s3)[nH]c2=O)cc1 [Compound 5300, (3Z,6Z)-6-(4-Acetamidobenzylidene)-3-(5-(2-dimethylaminoethylthio)-2-thienyl)methylene-2,5-piperazinedione]		64	70	25	
CC(=O)Nc1ccc(/C=c2\[nH]c(=O)/c(=C/c3ccc(SCCN(C)C)s3)[nH]c2=O)cc1 [Compound 5300.HCl, (3Z,6Z)-6-(4-Acetamidobenzylidene)-3-(5-(2-dimethylaminoethylthio)-2-thienyl)methylene-2,5-piperazinedione]	10	41	26		
CN(C)CCSc1ccc(/C=c2\[nH]c(=O)/c(=C/c3ccc4c(c3)Cc3ccccc3-4)[nH]c2=O)s1 [Compound 5301, (3Z,6Z)-3-(5-(2-Dimethylaminoethylthio)-2-thienyl)methylene-6-(2-fluorenylmethylene)-2,5-piperazinedione]		65	107	20	
CN(C)CCSc1ccc(/C=c2\[nH]c(=O)/c(=C/c3ccnc4ccccc34)[nH]c2=O)s1 [Compound 5307, (3Z,6Z)-6-(5-(2-Dimethylaminoethylthio)-2-thienyl)methylene-3-(4-quinolylmethylene)-2,5-piperazinedione]		83	88	8.5	
CN(C)CCSc1ccc(/C=c2\[nH]c(=O)/c(=C/c3ccnc4ccccc34)[nH]c2=O)s1 [Compound 5307.HCl, (3Z,6Z)-6-(5-(2-Dimethylaminoethylthio)-2-thienyl)methylene-3-(4-quinolylmethylene)-2,5-piperazinedione]				18	
CN(C)CCSc1ccc(/C=c2\[nH]c(=O)/c(=C/c3ccc4ccccc4n3)[nH]c2=O)s1 [Compound 5308, (3Z,6Z)-6-(5-(2-Dimethylaminoethylthio)-2-thienyl)methylene-3-(2-quinolylmethylene)-2,5-piperazinedione]		81	80	4.7	
CN(C)CCSc1ccc(/C=c2\[nH]c(=O)/c(=C/c3ccc4ccccc4n3)[nH]c2=O)s1 [Compound 5308.HCl, (3Z,6Z)-6-(5-(2-Dimethylaminoethylthio)-2-thienyl)methylene-3-(2-quinolylmethylene)-2,5-piperazinedione]		93	93	4.5	
CN(C)CCSc1ccc(/C=c2\[nH]c(=O)/c(=C/c3ccc4c(c3)CCO4)[nH]c2=O)s1 [Compound 5311, (3Z,6Z)-3-(2,3-dihydro-5-benzofuranyl)methylene-6-(5-(2-dimethylaminoethylthio)-2-thienyl)methylene-2,5-piperazinedione]					15
CN(C)CCSc1ccc(/C=c2\[nH]c(=O)/c(=C/c3ccc4c(c3)CCO4)[nH]c2=O)s1 [Compound 5311.HCl, (3Z,6Z)-3-(2,3-dihydro-5-benzofuranyl)methylene-6-(5-(2-dimethylaminoethylthio)-2-thienyl)methylene-2,5-piperazinedione]				20	
CN(C)CCSc1ccc(/C=c2\[nH]c(=O)/c(=C/c3ccccc3Br)[nH]c2=O)s1 [Compound 5313, (3Z,6Z)-6-(2-Bromobenzylidene)-3-(5-(2-dimethylaminoethylthio)-2-thienyl)methylene-2,5-piperazinedione]		10			
